Earlier results as cited in the CATMoS acute toxicity set (Mansouri et al. 2021).
Several values for one entry are separate records, joined by “and”; a condition that tells them apart may be missing. Identical values can stand only once.

Assay: rat acute oral toxicity
Details: in vivo

**Q.** Which LD50 does the source give for `O=C(Oc1ccccc1)c1ccccc1C(=O)Oc1ccccc1` here?
**A.** 8000 mg/kg

**Q.** With `COS(=O)(=O)c1ccc(C)cc1` as the compound, how does the LD50 read?
**A.** 341 mg/kg

**Q.** Which LD50 does the source give for `CCC(C)NP1(=S)OCc2cc([N+](=O)[O-])ccc2O1` (stereo not given) here?
**A.** 125 mg/kg

**Q.** With `CCOP(=S)(OCC)Oc1ccc(N=C=S)cc1` as the compound, how does the LD50 read?
**A.** 251 mg/kg

**Q.** With `CCCN(CCC)C(=O)CN(CC)P(=S)(OCC)OCC` as the compound, how does the LD50 read?
**A.** 2080 mg/kg

**Q.** Which LD50 does the source give for `CN1CCC2(C)c3cc(OC(=O)NCCCCCCCCN4CCSCC4)ccc3N(C)C12` (stereo not given) here?
**A.** 23.8 mg/kg

**Q.** For `O=C(OC1CCCCC1)C(Oc1ccc(Cl)cc1)Oc1ccc(Cl)cc1`, which LD50 is on record?
**A.** 900 mg/kg

**Q.** With `Cc1cc(C(=O)NNC(C)Cc2ccccc2)no1` (stereo not given) as the compound, how does the LD50 read?
**A.** 89 mg/kg

**Q.** With `CC(C)CCOC(=S)S` as the compound, how does the LD50 read?
**A.** 765 mg/kg

**Q.** For `Cc1ccc(C(=O)c2ccc(CC(=O)N3CCN(C)CC3)n2C)cc1`, which LD50 is on record?
**A.** 1000 mg/kg

**Q.** With `Cn1c(-c2ccccc2)cc(-c2ccccc2)[n+]1C` as the compound, how does the LD50 read?
**A.** 206 mg/kg and 470 mg/kg

**Q.** For `O=C1C=CC(=O)c2ccccc21`, which LD50 is on record?
**A.** 190 mg/kg

**Q.** For `O=[N+]([O-])c1cccc(C(F)(F)F)c1`, which LD50 is on record?
**A.** 610 mg/kg

**Q.** Which LD50 does the source give for `C=C(C)C(=O)OC[Si]12OCCN(CCO1)CCO2` here?
**A.** 7950 mg/kg

**Q.** Which LD50 does the source give for `Cc1cc(C(C)(C)C)c(OB(OC(C)C)OC(C)C)c(C(C)(C)C)c1` here?
**A.** 5200 mg/kg

**Q.** With `CCCC(C)OP(=S)(OC)OC` (stereo not given) as the compound, how does the LD50 read?
**A.** 311 mg/kg

**Q.** With `CC(Br)CBr` (stereo not given) as the compound, how does the LD50 read?
**A.** 741 mg/kg

**Q.** With `O=C(NCCO[N+](=O)[O-])c1cccnc1` as the compound, how does the LD50 read?
**A.** 1220 mg/kg

**Q.** For `CCn1nc(C(=O)O)c(=O)c2cc3c(cc21)OCO3`, which LD50 is on record?
**A.** 3610 mg/kg

**Q.** Which LD50 does the source give for `O=C(CO)Nc1ccccc1` here?
**A.** 1700 mg/kg

**Q.** With `OC1CCN(c2ccc(-c3ccc(Cl)cc3Cl)nn2)CC1` as the compound, how does the LD50 read?
**A.** 300 mg/kg

**Q.** With `COC(=O)c1c(Cl)c(Cl)c(C(=O)OC)c(Cl)c1Cl` as the compound, how does the LD50 read?
**A.** 3000 mg/kg

**Q.** With `C[Si](C)(C)CC(=O)O` as the compound, how does the LD50 read?
**A.** 3000 mg/kg

**Q.** Which LD50 does the source give for `COc1ccccc1OCC(O)CO` (stereo not given) here?
**A.** 1510 mg/kg

**Q.** With `CCC1(C)C(=O)N(CC2CO2)C(=O)N1CC1CO1` (stereo not given) as the compound, how does the LD50 read?
**A.** 250 mg/kg

**Q.** With `C=C(Cl)C(=O)Nc1ccc(OC)cc1` as the compound, how does the LD50 read?
**A.** 82 mg/kg

**Q.** For `Cc1ccc(N=C=O)cc1`, which LD50 is on record?
**A.** 1600 mg/kg

**Q.** Which LD50 does the source give for `O=c1[nH]c2ccccc2o1` here?
**A.** 700 mg/kg

**Q.** Which LD50 does the source give for `Nc1ccc(N(c2ccccc2)c2ccc(N)cc2)cc1` here?
**A.** 330 mg/kg

**Q.** With `COP(=S)(OC)SC(C(=O)OC(C)C)c1ccccc1` (stereo not given) as the compound, how does the LD50 read?
**A.** 205 mg/kg

**Q.** With `COc1c(O)cc(Cl)c(Cl)c1Cl` as the compound, how does the LD50 read?
**A.** 2980 mg/kg

**Q.** With `CN1CCC(OC(c2ccccc2)c2ccccc2)CC1` as the compound, how does the LD50 read?
**A.** 698 mg/kg

**Q.** With `C=C(C)C(=O)OCCN(CC)CC` as the compound, how does the LD50 read?
**A.** 4700 mg/kg

**Q.** For `c1ccc(N2CCOCC2)cc1`, which LD50 is on record?
**A.** 930 mg/kg

**Q.** Which LD50 does the source give for `CC(=Nc1c(I)cc(I)c(C(=O)NCC(C)C(=O)O)c1I)N1CCOCC1` (stereo not given) here?
**A.** 15000 mg/kg and 7000 mg/kg

**Q.** Which LD50 does the source give for `O=S(=O)(Cl)CCCl` here?
**A.** 240 mg/kg

**Q.** With `CCSc1nnc(C(C)(C)C)c(=O)n1N` as the compound, how does the LD50 read?
**A.** 599 mg/kg

**Q.** Which LD50 does the source give for `C=C(C)Cn1c(N)cc(=O)n(C)c1=O` here?
**A.** 1560 mg/kg

**Q.** For `CC1(C(=O)O)CC=CCC1` (stereo not given), which LD50 is on record?
**A.** 2140 mg/kg

**Q.** With `ClC1=C(Cl)[C@]2(Cl)[C@@H]3C[C@@H](Cl)[C@@H](Cl)[C@@H]3[C@@]1(Cl)C2(Cl)Cl` (racemic) as the compound, how does the LD50 read?
**A.** 500 mg/kg

**Q.** Which LD50 does the source give for `CC1(C)CC(N2C(C)(C)CC(N)CC2(C)C)CC(C)(C)N1` here?
**A.** 2170 mg/kg

**Q.** For `O=C1C(CCS(=O)c2ccccc2)C(=O)N(c2ccccc2)N1c1ccccc1` (stereo not given), which LD50 is on record?
**A.** 358 mg/kg

**Q.** For `CCCCC(CC)CNC(=O)CC(C)OC(=O)CCC(=O)O` (stereo not given), which LD50 is on record?
**A.** 12100 mg/kg

**Q.** Which LD50 does the source give for `Cc1cccc(C)c1N(CCCC(=O)O)C(=O)c1ccc(Cl)cc1` here?
**A.** 1900 mg/kg

**Q.** With `O=c1c(F)cn(C2CCCO2)c(=O)n1C1CCCO1` (stereo not given) as the compound, how does the LD50 read?
**A.** 1730 mg/kg

**Q.** With `CC(=C\c1ccccc1)/C=C1/SC(=S)N(CC(=O)O)C1=O` as the compound, how does the LD50 read?
**A.** 5.3 mg/kg

**Q.** For `CC(=O)Oc1c(C(C)(C)C)cc([N+](=O)[O-])c(C)c1[N+](=O)[O-]`, which LD50 is on record?
**A.** 42 mg/kg

**Q.** With `O=C(O)CNC(=O)c1ccc(Cl)cc1` as the compound, how does the LD50 read?
**A.** 2230 mg/kg

**Q.** With `CCOC(OCC)OCC` as the compound, how does the LD50 read?
**A.** 7060 mg/kg

**Q.** With `CC(C)(c1ccc(O)cc1)c1ccc(O)cc1` as the compound, how does the LD50 read?
**A.** 1000 mg/kg

**Q.** Which LD50 does the source give for `CCN1CCCC(Nc2cc(C)nc(N=C(N)Nc3ccc(Cl)c(Cl)c3)n2)C1` (stereo not given) here?
**A.** 1040 mg/kg

**Q.** Which LD50 does the source give for `COc1ccc(CCNCC(O)COc2ccc(OCC(C)=O)c3c2CCC(=O)N3)cc1OC` (stereo not given) here?
**A.** 1260 mg/kg

**Q.** For `FC(F)(F)c1nc2c(Cl)cc(Cl)c(Cl)c2[nH]1`, which LD50 is on record?
**A.** 6.33 mg/kg

**Q.** Which LD50 does the source give for `O=C(O)C(c1ccccc1)c1ccccc1` here?
**A.** 5540 mg/kg

**Q.** For `C=C1/C(=C\C=C2/CCC[C@]3(C)[C@@H]([C@H](C)CCCC(C)(C)O)CC[C@@H]23)C[C@@H](O)C[C@@H]1O`, which LD50 is on record?
**A.** 0.62 mg/kg

**Q.** Which LD50 does the source give for `CN1C(=O)CCS(=O)(=O)C1c1ccc(Cl)cc1` (stereo not given) here?
**A.** 605 mg/kg

**Q.** Which LD50 does the source give for `Nc1ccc(Oc2ccc(N)cc2)cc1` here?
**A.** 725 mg/kg

**Q.** Which LD50 does the source give for `CN(C)S(=O)(=O)CCCCNC(=O)N(CCCl)N=O` here?
**A.** 250 mg/kg

**Q.** For `Clc1cccc(Cl)c1Nc1ncccn1`, which LD50 is on record?
**A.** 4720 mg/kg

**Q.** With `O=NN(Cc1ccccc1)Cc1ccccc1` as the compound, how does the LD50 read?
**A.** 900 mg/kg

**Q.** For `CCCC=C1OC(=O)c2ccccc21`, which LD50 is on record?
**A.** 1850 mg/kg

**Q.** With `Cc1cc(Br)ccc1-n1c(C)nc2ccccc2c1=O` as the compound, how does the LD50 read?
**A.** 240 mg/kg

**Q.** Which LD50 does the source give for `Cc1ncc2c(c1O)CSSC2` here?
**A.** 1110 mg/kg

**Q.** With `Nc1ccc2[nH]c3ccccc3c2c1` as the compound, how does the LD50 read?
**A.** 1520 mg/kg

**Q.** With `O=S1(=O)CS(=O)(=O)OCO1` as the compound, how does the LD50 read?
**A.** 300 mg/kg

**Q.** With `Cc1oncc1C(=O)Nc1ccc(C(F)(F)F)cc1` as the compound, how does the LD50 read?
**A.** 235 mg/kg

**Q.** Which LD50 does the source give for `COP(=S)(OC)SCSc1ccccc1` here?
**A.** 16 mg/kg

**Q.** With `NC(=S)Nc1ccc(-c2ccc(NC(N)=S)cc2)cc1` as the compound, how does the LD50 read?
**A.** 200 mg/kg

**Q.** For `Clc1cn[nH]c1`, which LD50 is on record?
**A.** 527 mg/kg

**Q.** Which LD50 does the source give for `O=C(O)COc1ccc(Cl)cc1Cl` here?
**A.** 405 mg/kg and 850 mg/kg

**Q.** For `CCN(CC)c1cccc(OC(=O)NC)c1`, which LD50 is on record?
**A.** 91 mg/kg

**Q.** With `NCCN1CCNCC1` as the compound, how does the LD50 read?
**A.** 2140 mg/kg

**Q.** Which LD50 does the source give for `CCOP(=O)(N=C1SCCS1)OCC` here?
**A.** 8.9 mg/kg

**Q.** For `CC(CN(CCN(CC(C)OB(O)O)CC(C)OB(O)O)CC(C)OB(O)O)OB(O)O` (stereo not given), which LD50 is on record?
**A.** 4930 mg/kg

**Q.** With `Cc1c(Cl)c(Br)c(Cl)c2[nH]c(C(F)(F)F)nc12` as the compound, how does the LD50 read?
**A.** 18.3 mg/kg
